Laboratory results taken from patent publication US20060069132A1, “Azolecarboxamide herbicides” (priority 2004, published 2006).

Experiments:
bermudagrass = assay: Test C pre-/postemergence herbicide test; type: in vivo, Cynodon dactylon
In short: (§1)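 Pre/post spray; non-phytotoxic solvent + surfactant. Post-timing 1–4 leaves, 2–18 cm. Read-out: visual % control vs untreated, day 12–14, greenhouse.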

corn = assay: Test C pre-/postemergence herbicide test; type: in vivo, Zea mays
In short: as §1

large crabgrass = assay: Test C pre-/postemergence herbicide test; type: in vivo, Digitaria sanguinalis
In short: as §1

giant foxtail = assay: Test C pre-/postemergence herbicide test; type: in vivo, Setaria faberi
In short: as §1

kochia = assay: Test C pre-/postemergence herbicide test; type: in vivo, Kochia scoparia
In short: as §1

morningglory = assay: Test C pre-/postemergence herbicide test; type: in vivo, Ipomoea coccinea; parameters: key to Plant response rating, Morningglory: 0 = no effect, 100 = complete control
In short: as §1

common ragweed = assay: Test C pre-/postemergence herbicide test; type: in vivo, Ambrosia elatior; parameters: key to Plant response rating, Ragweed: 0 = no effect, 100 = complete control
In short: as §1

[1] = system: common (oilseed) sunflower; assay: Test C pre-/postemergence herbicide test; type: in vivo, Helianthus annuus
In short: as §1

rice = assay: Test C flooded paddy test; type: in vivo, Oryza sativa; conditions: for Plant response rating, Rice: 500 g ai/ha, visual rating after 12 to 14 days
In short: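 Postemergence sprays applied to plants 2 to 18 cm tall (1- to 4-leaf stage); paddy species grown to 2-leaf stage under flooding. After 12 to 14 days in greenhouse, visual rating versus untreated controls on 0–100 scale (0 no effect, 100 complete control).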

[2] = system: smallflower umbrella sedge; assay: Test C flooded paddy test; type: in vivo, Cyperus difformis; conditions: for Plant response rating, Sedge, Umbrella: 500 g ai/ha, visual rating after 12 to 14 days
ducksalad = assay: Test C flooded paddy test; type: in vivo, Heteranthera limosa; conditions: for Plant response rating, Ducksalad: 500 g ai/ha, visual rating after 12 to 14 days
[3] = 62 g ai/ha, preemergence, scale 0 to 100, 0 no effect, 100 complete control
[4] = 125 g ai/ha, scale 0 (no effect) to 100 (complete control), visual, 12 to 14 days, preemergence
[5] = 250 g ai/ha, scale 0 to 100 (0 no effect, 100 complete control), visual, 12 to 14 days, preemergence
[6] = Preemergence, 500 g ai/ha, scale 0 to 100, 0 no effect, 100 complete control
[7] = 62 g ai/ha, preemergence, scale 0 to 100
[8] = 62 g ai/ha, scale 0 to 100 (0 no effect, 100 complete control)
[9] = 125 g ai/ha, scale 0 to 100 (0 no effect, 100 complete control)
[10] = 250 g ai/ha, scale of 0 to 100, 0 is no effect, 100 is complete control
[11] = scale 0 to 100 (0 no effect, 100 complete control)
[12] = 250 g ai/ha, scale 0-100, preemergence
[13] = 500 g ai/ha, scale 0 to 100 (0 no effect, 100 complete control), visual, 12 to 14 days, preemergence

Q: For `CCNC(=O)c1ccnc(NC(=O)c2cc(C(C)(C)C)nn2CC)c1` [Compound 152], which “Plant response rating, Bermudagrass” value (bermudagrass; [3]) is on record?
A: 85

Q: And the “Plant response rating, Bermudagrass” value (bermudagrass; [4])?
A: 90

Q: What about the “Plant response rating, Bermudagrass” value (bermudagrass; [5]) of the same compound?
A: 100

Q: And the “Bermudagrass plant response rating” value (bermudagrass; [6])?
A: 100

Q: And the “Plant response rating, Corn” value (corn; [7])?
A: 40

Q: And the “Plant response rating, Corn” value (corn; [4])?
A: 45

Q: And the “Plant response rating, Corn” value (corn; [5])?
A: 50

Q: What about the “Corn plant response rating” value (corn; [6]) of the same compound?
A: 70

Q: What about the “Plant response rating, Crabgrass, Large” value (large crabgrass; [7]) of the same compound?
A: 100

Q: And the “Plant response rating, Crabgrass, Large” value (large crabgrass; [4])?
A: 100

Q: And the “Plant response rating, Crabgrass, Large” value (large crabgrass; [5])?
A: 100

Q: And the “Crabgrass, Large plant response rating” value (large crabgrass; [6])?
A: 100

Q: What about the “Plant response rating, Foxtail, Giant” value (giant foxtail; [7]) of the same compound?
A: 70

Q: What about the “Plant response rating, Foxtail, Giant” value (giant foxtail; [4]) of the same compound?
A: 100

Q: And the “Plant response rating, Foxtail, Giant” value (giant foxtail; [5])?
A: 100

Q: And the “Foxtail, Giant plant response rating” value (giant foxtail; [6])?
A: 100

Q: What about the “Plant response rating, Kochia” value (kochia; [7]) of the same compound?
A: 100

Q: And the “Plant response rating, Kochia” value (kochia; [4])?
A: 100

Q: What about the “Kochia plant response rating” value (kochia; [6]) of the same compound?
A: 100

Q: And the “Plant response rating, Morningglory” value (morningglory; [7])?
A: 20

Q: What about the “Plant response rating, Morningglory” value (morningglory; [4]) of the same compound?
A: 80

Q: What about the “Morningglory plant response rating” value (morningglory; [6]) of the same compound?
A: 100

Q: What about the “Plant response rating, Ragweed” value (common ragweed; [7]) of the same compound?
A: 85

Q: And the “Plant response rating, Ragweed” value (common ragweed; [4])?
A: 85

Q: And the “Ragweed plant response rating” value (common ragweed; [6])?
A: 100

Q: And the “Plant response rating, Sunflower” value [1, 7]?
A: 0

Q: And the “Plant response rating, Sunflower” value [1, 4]?
A: 10

Q: And the “Sunflower plant response rating” value [1, 6]?
A: 70

Q: What about the “Rice plant response rating” value (rice; [8]) of the same compound?
A: 50

Q: And the “Rice plant response rating” value (rice; [9])?
A: 75

Q: What about the “Rice plant response rating” value (rice; [10]) of the same compound?
A: 75

Q: And the “Plant response rating, Rice” value (rice; [11])?
A: 80

Q: What about the “Sedge, Umbrella plant response rating” value [2, 8] of the same compound?
A: 80

Q: What about the “Sedge, Umbrella plant response rating” value [2, 9] of the same compound?
A: 80

Q: What about the “Sedge, Umbrella plant response rating” value [2, 10] of the same compound?
A: 85

Q: What about the “Plant response rating, Sedge, Umbrella” value [2, 11] of the same compound?
A: 85

Q: What about the “Ducksalad plant response rating” value (ducksalad; [8]) of the same compound?
A: 85

Q: What about the “Ducksalad plant response rating” value (ducksalad; [9]) of the same compound?
A: 85

Q: And the “Ducksalad plant response rating” value (ducksalad; [10])?
A: 85

Q: And the “Plant response rating, Ducksalad” value (ducksalad; [11])?
A: 85

Q: Which “Plant response rating, Bermudagrass” value (bermudagrass; [3]) does the source give for `Cc1nn(C(C)(C)C)nc1C(=O)Nc1cccc(C(=O)N(C)C)c1` [Compound 391] here?
A: 95

Q: What about the “Plant response rating (0 = no effect, 100 = complete control), Bermudagrass” value (bermudagrass; 125 g ai/ha, preemergence) of the same compound?
A: 95

Q: And the “Plant response rating, Bermudagrass” value (bermudagrass; [12])?
A: 95

Q: And the “Plant response rating, Bermudagrass” value (bermudagrass; [13])?
A: 95

Q: What about the “Plant response rating, Corn” value (corn; [7]) of the same compound?
A: 80

Q: What about the “Plant response rating (0 = no effect, 100 = complete control), Corn” value (corn; 125 g ai/ha, preemergence) of the same compound?
A: 80

Q: And the “Plant response rating, Corn” value (corn; [12])?
A: 85

Q: What about the “Plant response rating, Corn” value (corn; [13]) of the same compound?
A: 85

Q: What about the “Plant response rating, Crabgrass, Large” value (large crabgrass; [7]) of the same compound?
A: 98

Q: What about the “Plant response rating (0 = no effect, 100 = complete control), Crabgrass, Large” value (large crabgrass; 125 g ai/ha, preemergence) of the same compound?
A: 100

Q: What about the “Plant response rating, Crabgrass, Large” value (large crabgrass; [12]) of the same compound?
A: 100

Q: What about the “Plant response rating, Crabgrass, Large” value (large crabgrass; [13]) of the same compound?
A: 100

Q: And the “Plant response rating, Foxtail, Giant” value (giant foxtail; [7])?
A: 85

Q: What about the “Plant response rating (0 = no effect, 100 = complete control), Foxtail, Giant” value (giant foxtail; 125 g ai/ha, preemergence) of the same compound?
A: 100

Q: What about the “Plant response rating, Foxtail, Giant” value (giant foxtail; [12]) of the same compound?
A: 100

Q: What about the “Plant response rating, Foxtail, Giant” value (giant foxtail; [13]) of the same compound?
A: 100

Q: What about the “Plant response rating, Kochia” value (kochia; [7]) of the same compound?
A: 100

Q: And the “Plant response rating (0 = no effect, 100 = complete control), Kochia” value (kochia; 125 g ai/ha, preemergence)?
A: 100

Q: And the “Plant response rating, Kochia” value (kochia; [12])?
A: 100

Q: What about the “Plant response rating, Kochia” value (kochia; [13]) of the same compound?
A: 100

Q: And the “Plant response rating, Morningglory” value (morningglory; [7])?
A: 100

Q: What about the “Plant response rating (0 = no effect, 100 = complete control), Morningglory” value (morningglory; 125 g ai/ha, preemergence) of the same compound?
A: 100

Q: And the “Plant response rating, Morningglory” value (morningglory; [12])?
A: 100

Q: And the “Plant response rating, Morningglory” value (morningglory; [13])?
A: 100

Q: And the “Plant response rating, Ragweed” value (common ragweed; [7])?
A: 85

Q: What about the “Plant response rating (0 = no effect, 100 = complete control), Ragweed” value (common ragweed; 125 g ai/ha, preemergence) of the same compound?
A: 100

Q: What about the “Plant response rating, Ragweed” value (common ragweed; [12]) of the same compound?
A: 100

Q: What about the “Plant response rating, Ragweed” value (common ragweed; [13]) of the same compound?
A: 100

Q: What about the “Plant response rating, Sunflower” value [1, 7] of the same compound?
A: 50

Q: What about the “Plant response rating (0 = no effect, 100 = complete control), Sunflower” value ([1]; 125 g ai/ha, preemergence) of the same compound?
A: 95

Q: What about the “Plant response rating, Sunflower” value [1, 12] of the same compound?
A: 100

Q: What about the “Plant response rating, Sunflower” value [1, 13] of the same compound?
A: 100

Q: What about the “Rice plant response rating” value (rice; 62 g ai/ha, scale 0 to 100) of the same compound?
A: 65

Q: What about the “Rice plant response rating” value (rice; [9]) of the same compound?
A: 65

Q: And the “Rice plant response rating” value (rice; [10])?
A: 75

Q: What about the “Plant response rating, Rice” value (rice; [11]) of the same compound?
A: 80

Q: What about the “Sedge, Umbrella plant response rating” value ([2]; 62 g ai/ha, scale 0 to 100) of the same compound?
A: 80

Q: What about the “Sedge, Umbrella plant response rating” value [2, 9] of the same compound?
A: 80

Q: What about the “Sedge, Umbrella plant response rating” value [2, 10] of the same compound?
A: 85

Q: What about the “Plant response rating, Sedge, Umbrella” value [2, 11] of the same compound?
A: 95

Q: What about the “Ducksalad plant response rating” value (ducksalad; 62 g ai/ha, scale 0 to 100) of the same compound?
A: 85

Q: And the “Ducksalad plant response rating” value (ducksalad; [9])?
A: 85

Q: And the “Ducksalad plant response rating” value (ducksalad; [10])?
A: 85

Q: What about the “Plant response rating, Ducksalad” value (ducksalad; [11]) of the same compound?
A: 95
